Results published in the supplement of paper PMC7017272.
± gives the standard deviation of the averaged measurements.

How the values were obtained:
Conditions in all cases: treatment time: 3 days
UT-SCC-24A [1] = test: drug sensitivity score (DSS); higher = more sensitive
Experimental: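 HNSCC cell lines (500 cells/well, 384-well) were cultured on plastic, on top of (2D) or embedded (3D) in Matrigel or human leiomyoma matrix Myogel (500 ug/mL; Myogel 3D mixed with rat collagen I). Cells were treated for 3 days with 5 ten-fold concentrations of each drug, and viability was read by CellTiter-Glo. Suffixes _1/_2/_3 on drug names are replicates.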

UT-SCC-106A [2] = test: maximal % inhibition of viability relative to DMSO; higher = stronger effect
Method in brief: (§1)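 Three growth formats were used for HPV-negative HNSCC cell lines in 384-well plates at 500 cells/well: bare plastic, wells coated with Matrigel or Myogel (500 µg/mL), and embedding in Matrigel or Myogel plus rat collagen I. Compounds were added at five 10-fold concentrations, and after 3 days CellTiter-Glo 2.0 luminescence was recorded and normalised to vehicle (0.1% DMSO) and cell-killing control wells. IC50, maximal inhibition and drug sensitivity score came from percent-inhibition dose–response fitting in the FIMM pipeline.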

UT-SCC-14 [3] = test: as above
Method in brief: as §1

UT-SCC-28 [4] = test: as above
Method in brief: as §1

UT-SCC-24A [5] = test: maximal % inhibition of viability relative to DMSO; higher = stronger effect
Experimental: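 HNSCC cell lines (500 cells/well, 384-well) were cultured on plastic, on top of (2D) or embedded (3D) in Matrigel or human leiomyoma matrix Myogel (500 ug/mL; Myogel 3D mixed with rat collagen I). Cells were treated for 3 days with 5 ten-fold concentrations of each drug, and viability was read by CellTiter-Glo. Viability was normalised to DMSO (0% inhibition) and 100 uM benzethonium chloride (100% inhibition) controls and fitted with the FIMM DSRT pipeline to give IC50 (nM), maximal % inhibition and the drug sensitivity score (DSS). Suffixes _1/_2/_3 on drug names are replicates.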

UT-SCC-106A [6] = test: drug sensitivity score (DSS); higher = more sensitive; extreme values may be limits of the assay
Method in brief: as §1

UT-SCC-14 [7] = test: as above
Method in brief: as §1

UT-SCC-24B = test: as above
Method in brief: as §1

UT-SCC-28 [8] = test: as above
Method in brief: as §1

UT-SCC-40 = test: as above
Method in brief: as §1

UT-SCC-42A = test: as above
Method in brief: as §1

UT-SCC-42B = test: as above
Method in brief: as §1

UT-SCC-44 = test: as above
Method in brief: as §1

UT-SCC-73 = test: as above
Method in brief: as §1

UT-SCC-81 = test: as above
Method in brief: as §1

UT-SCC-8 = test: as above
Method in brief: as §1

[9] = culture condition: embedded in Matrigel
[10] = culture condition: embedded in Myogel + collagen I
[11] = culture condition: on top of Matrigel
[12] = culture condition: on top of Myogel
[13] = culture condition: plastic 2D (no matrix)

Compound: COc1ccc(-c2cc3c(C)nc(N)nc3n([C@H]3CC[C@H](OCCO)CC3)c2=O)cn1
- drug sensitivity score (UT-SCC-24A [1]; [9]): 17 ± 7.7 DSS
- drug sensitivity score (UT-SCC-24A [1]; [10]): 9.63 ± 6.9 DSS
- drug sensitivity score (UT-SCC-24A [1]; [11]): 11.9 ± 4.7 DSS
- drug sensitivity score (UT-SCC-24A [1]; [12]): 5.83 ± 2.9 DSS
- drug sensitivity score (UT-SCC-24A [1]; [13]): 11.4 ± 7.7 DSS
- maximal % inhibition of viability (UT-SCC-106A [2]; [9]): 72.2 ± 2.7%
- maximal % inhibition of viability (UT-SCC-106A [2]; [10]): 58.5 ± 8.7%
- maximal % inhibition of viability (UT-SCC-106A [2]; [11]): 75.6 ± 2.8%
- maximal % inhibition of viability (UT-SCC-106A [2]; [12]): 61.7 ± 13%
- maximal % inhibition of viability (UT-SCC-106A [2]; [13]): 76.8 ± 4.8%
- maximal % inhibition of viability (UT-SCC-14 [3]; [9]): 80.5 ± 3.8%
- maximal % inhibition of viability (UT-SCC-14 [3]; [10]): 67.7 ± 5.3%
- maximal % inhibition of viability (UT-SCC-14 [3]; [11]): 77.3 ± 1.4%
- maximal % inhibition of viability (UT-SCC-14 [3]; [12]): 67.5 ± 3.8%
- maximal % inhibition of viability (UT-SCC-14 [3]; [13]): 72.7 ± 3.6%
- maximal % inhibition of viability (UT-SCC-28 [4]; [9]): 63.3 ± 13%
- maximal % inhibition of viability (UT-SCC-28 [4]; [10]): 65.3 ± 16%
- maximal % inhibition of viability (UT-SCC-28 [4]; [11]): 66 ± 3.7%
- maximal % inhibition of viability (UT-SCC-28 [4]; [13]): 56.8 ± 3.1%
- maximal % inhibition of viability (UT-SCC-24A [5]; [9]): 79.2 ± 19%
- maximal % inhibition of viability (UT-SCC-24A [5]; [10]): 61.6 ± 18%
- maximal % inhibition of viability (UT-SCC-24A [5]; [11]): 71.5 ± 12%
- maximal % inhibition of viability (UT-SCC-24A [5]; [12]): 54.5 ± 16%
- maximal % inhibition of viability (UT-SCC-24A [5]; [13]): 72.1 ± 23%
- drug sensitivity score (UT-SCC-106A [6]; [9]): 17.5 ± 1.9 DSS
- drug sensitivity score (UT-SCC-106A [6]; [10]): 9.13 ± 3.2 DSS
- drug sensitivity score (UT-SCC-106A [6]; [11]): 15 ± 3.7 DSS
- drug sensitivity score (UT-SCC-106A [6]; [12]): 8.9 ± 4.4 DSS
- drug sensitivity score (UT-SCC-106A [6]; [13]): 15.3 ± 3 DSS
- drug sensitivity score (UT-SCC-14 [7]; [9]): 14.9 ± 7.8 DSS
- drug sensitivity score (UT-SCC-14 [7]; [10]): 8.67 ± 4.7 DSS
- drug sensitivity score (UT-SCC-14 [7]; [11]): 12.8 ± 5.7 DSS
- drug sensitivity score (UT-SCC-14 [7]; [12]): 9.9 ± 2.5 DSS
- drug sensitivity score (UT-SCC-14 [7]; [13]): 9.5 ± 2 DSS
- drug sensitivity score (UT-SCC-24B; [9]): 15.4 ± 3.6 DSS
- drug sensitivity score (UT-SCC-24B; [10]): 19.8 ± 1.6 DSS
- drug sensitivity score (UT-SCC-24B; [11]): 16.1 ± 1.8 DSS
- drug sensitivity score (UT-SCC-24B; [12]): 13.9 ± 1.9 DSS
- drug sensitivity score (UT-SCC-24B; [13]): 16.6 ± 3.5 DSS
- drug sensitivity score (UT-SCC-28 [8]; [9]): 10.5 ± 5.4 DSS
- drug sensitivity score (UT-SCC-28 [8]; [10]): 6.7 ± 5 DSS
- drug sensitivity score (UT-SCC-28 [8]; [11]): 13.8 ± 2.3 DSS
- drug sensitivity score (UT-SCC-28 [8]; [13]): 11.5 ± 1.7 DSS
- drug sensitivity score (UT-SCC-40; [9]): 13.4 ± 5.6 DSS
- drug sensitivity score (UT-SCC-40; [10]): 11.5 ± 5.7 DSS
- drug sensitivity score (UT-SCC-40; [11]): 12.1 ± 5.5 DSS
- drug sensitivity score (UT-SCC-40; [12]): 8.77 ± 3.4 DSS
- drug sensitivity score (UT-SCC-40; [13]): 8.4 ± 3.7 DSS
- drug sensitivity score (UT-SCC-42A; [9]): 5.87 ± 2.1 DSS
- drug sensitivity score (UT-SCC-42A; [10]): 5.73 ± 2.2 DSS
- drug sensitivity score (UT-SCC-42A; [11]): 7.63 ± 4.4 DSS
- drug sensitivity score (UT-SCC-42A; [12]): 6.6 ± 2.3 DSS
- drug sensitivity score (UT-SCC-42A; [13]): 7.97 ± 3.2 DSS
- drug sensitivity score (UT-SCC-42B; [9]): 10.2 ± 4.3 DSS
- drug sensitivity score (UT-SCC-42B; [11]): 1.8 ± 1.7 DSS
- drug sensitivity score (UT-SCC-42B; [12]): 1 ± 0.87 DSS
- drug sensitivity score (UT-SCC-42B; [13]): 0.967 ± 0.58 DSS
- drug sensitivity score (UT-SCC-44; [9]): 10.5 ± 1.6 DSS
- drug sensitivity score (UT-SCC-44; [10]): 4.07 ± 2.6 DSS
- drug sensitivity score (UT-SCC-44; [11]): 8.07 ± 0.71 DSS
- drug sensitivity score (UT-SCC-44; [12]): 4.63 ± 1.3 DSS
- drug sensitivity score (UT-SCC-44; [13]): 5.7 ± 0.1 DSS
- drug sensitivity score (UT-SCC-73; [9]): 16 ± 2.9 DSS
- drug sensitivity score (UT-SCC-73; [10]): 12.1 ± 4.3 DSS
- drug sensitivity score (UT-SCC-73; [11]): 13.9 ± 2.8 DSS
- drug sensitivity score (UT-SCC-73; [12]): 12.7 ± 3 DSS
- drug sensitivity score (UT-SCC-73; [13]): 12.6 ± 4.8 DSS
- drug sensitivity score (UT-SCC-81; [9]): 23.6 ± 11 DSS
- drug sensitivity score (UT-SCC-81; [10]): 14.2 ± 7.1 DSS
- drug sensitivity score (UT-SCC-81; [11]): 15.9 ± 7.3 DSS
- drug sensitivity score (UT-SCC-81; [12]): 13.6 ± 6.6 DSS
- drug sensitivity score (UT-SCC-81; [13]): 14.4 ± 8.1 DSS
- drug sensitivity score (UT-SCC-8; [9]): 11.4 ± 2.5 DSS
- drug sensitivity score (UT-SCC-8; [10]): 4.97 ± 1.8 DSS
- drug sensitivity score (UT-SCC-8; [11]): 10.9 ± 3.1 DSS
- drug sensitivity score (UT-SCC-8; [12]): 10.9 ± 3.6 DSS
- drug sensitivity score (UT-SCC-8; [13]): 10.4 ± 2.7 DSS
